Results on seven compounds are retold here after patent US11667631B2, “FGFR4 inhibitor, preparation method therefor, and applications thereof” (Jiangsu Hansoh Pharmaceutical Group Co., Ltd., priority 2016, dated 2023).

pIC50: −log10 of the molar value. Read-outs that look alike come from different tables or passages of the source.

The target of one data set is FGFR1 kinase (Homo sapiens (Human), UniProt P11362). Description: Enzymologic experiment of FGFR1 (TR-FRET). To be noted: FGFR1 kinase activity. It is filed as biochemical. The essentials:
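FGFR1 at 0.1˜5 nM final with substrate peptide 5˜50 nM and ATP 10˜200 μM final, 0.5˜3 h at room temperature. Stopped with EDTA plus labeled antibody for 1 h; TR-FRET signal read at 665 nm, IC50 fitted from inhibition rates.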
In general terms: In TR-FRET formats the signal depends on donor and acceptor labels being close together.

A further data set relates to Hep 3B cells. Description: Inhibition of Hep 3B cell proliferation (CellTiter-Glo). It is filed as cell-based. As to conditions: Homo sapiens, Hep3B.
For a further data set, the system named is HuH-7 cells. Nature of the data set: Inhibition of HuH-7 cell proliferation (CellTiter-Glo). As to conditions: Homo sapiens, read-out: HuH-7 IC50. It is filed as cell-based. The essentials: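 HuH-7 cells plated and left 16–24 h, then exposed to serially diluted compound for 72 h at 37 °C, 5% CO2. Viability read by CellTiter-Glo luminescence. IC50 obtained by curve fitting of inhibition rates.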

Another data set concerns SK-HEP-1 cells. Description: Inhibition of SK-HEP-1 cell proliferation (CellTiter-Glo). It is filed as cell-based. To be noted: Homo sapiens, read-out: SK-HEP-1 IC50. The essentials:
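Cells seeded and allowed to attach 16–24 h, then exposed to serially diluted compound for 72 h at 37 °C, 5% CO2. Viability read by CellTiter-Glo luminescence; IC50 fitted from inhibition rates across concentrations.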

A short description of data set [1]: Pharmacokinetic (PK) analysis in rats. To be noted: SD rats, single intragastric administration, 5 mg/kg; for Peak Time tmax: (sampling in hours); for AUC(0-t) / AUC(0-inf) / half-life / MRT / Cmax: Sprague-Dawley, rat, plasma, po; for AUC(0-t): read-out: Area Under Curve AUC0-t; for AUC(0-inf): read-out: Area Under Curve AUC0-∞; for half-life: read-out: Half-Time t1/2 (converted); for MRT: read-out: Mean Residence Time MRT; for Cmax: read-out: Plasma Concentration Cmax. Type of data set: in vivo, Sprague Dawley (SD) rats. The essentials: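 Intravenous blood (0.2 ml) was collected into K2EDTA and centrifuged to obtain plasma. Plasma (40 μL) was protein-precipitated with 160 μL acetonitrile. Compound levels were measured by LC/MS/MS on a C18 column using 0.1% formic acid in water and acetonitrile at 0.8 mL/min.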

For the next data set, the system named is Hep 3B cell line tumor. Nature of the data set: Pharmacodynamics test in vivo, Hep 3B tumor-bearing nude mice. As to conditions: Mus musculus, Hep3B, oral 30 mg/kg, 2 times/day, read-out: Tumor inhibition rate. The protocol: a, A Hep 3B cell line was taken from the cell bank, and the cells were resuscitated with the MEM culture medium (MEM+10% FBS+1% Glu+1% SP). The cells were placed in the cell culture bottle after resuscitation (cell type, date, and the name of the culturing person were marked on the bottle wall) and were incubated in a CO2 Incubator (the incubator temperature was 37° C., and the CO2 concentration was 5%).
b, The cells were passaged after 80-90% of the bottom of the culture bottle was covered by the cells. After passage, the cells were further incubated in the CO2 incubator. The process was repeated until the number of cells met the pharmacodynamic requirements in vivo.
c, The cultured cells were collected and counted by automatic cell counter. According to the counting results, the cells were resuspended with PBS to prepare a cell suspension (density: 7×10^7/mL), which was placed in the ice box for use.
a, Nude mouse was marked with a disposable universal ear tag for mouse and rat before inoculation, and the skin of the inoculated site was disinfected with 75% medical alcohol.
b, At the time of inoculation, the cell suspension was mixed well, 0.1˜1 mL of cell suspension was taken with a 1 mL syringe, after removing air bubbles, and the syringe was placed on an ice bag for use.
c, The nude mice were inoculated successively (the inoculated site was located on the right shoulder of the right back of the nude mice, and inoculated subcutaneously with 0.1 mL of cell suspension).
a, Tumor was measured on Day 14 to Day 16 after inoculation depending on the tumor growth, and tumor size was calculated.
Tumor volume calculation: tumor volume (mm^3)=length (mm)×width (mm)×width (mm)/2
b, According to the size of the tumor, the mice were grouped by random grouping.
c, According to the results of the grouping, the test drug was administered (administration method: oral administration, administration dose: 30 mg/kg, administration volume: 10 mL/kg, administration frequency: 2 times/day, […], vehicle: 0.5% CMC/1% Tween 80).
d, The tumor was measured and weighed twice a week after the test drug was administrated.
e, Animals were euthanized at the end of the test.

The next data set addresses FGFR4 kinase (Homo sapiens (Human), UniProt P22455). Nature of the data set: Enzymologic experiment of FGFR4 (TR-FRET). Type of data set: biochemical. As to conditions: FGFR4 kinase activity. The method, then:
In this experiment, the inhibitory effect of the compounds on FGFR4 kinase activity was tested by a fluorescence resonance energy transfer (TR-FRET) method, and the half maximal inhibitory concentration (IC50) of the compounds on the FGFR4 kinase activity was determined.
2) 1˜5 μL of diluted solution in gradient of the compound was added.
3) 1˜5 μL of a substrate mixture containing substrate polypeptide with a final concentration of 5˜50 nM and ATP with a final concentration of 10˜200 μM was added.
4) The mixture was incubated for 0.5˜3 hours at room temperature.
5) 10 μL of EDTA and a test solution comprising labeled antibody were added, and the plate was incubated for 1 hour at room temperature.
7) The inhibition rates were calculated according to the fluorescence signal values.

The mark [2] stands for this setting: 72 h, read-out: Hep 3B IC50, Hep 3B cell proliferation, 72 hours, CellTiter-Glo.
[3] abbreviates: 216 h, 9 days of administration.
[4] abbreviates: Hep 3B cell proliferation, 72 hours, CellTiter-Glo, read-out: Hep 3B IC50.
Setting [5] is: HuH-7 cell proliferation, 72 hours, CellTiter-Glo.
Where [6] appears, read: SK-HEP1, SK-HEP-1 cell proliferation, 72 hours, CellTiter-Glo.
Setting [7] is: 336 h, 14 days of administration.

Chain of FGFR1 kinase (P11362 22-822): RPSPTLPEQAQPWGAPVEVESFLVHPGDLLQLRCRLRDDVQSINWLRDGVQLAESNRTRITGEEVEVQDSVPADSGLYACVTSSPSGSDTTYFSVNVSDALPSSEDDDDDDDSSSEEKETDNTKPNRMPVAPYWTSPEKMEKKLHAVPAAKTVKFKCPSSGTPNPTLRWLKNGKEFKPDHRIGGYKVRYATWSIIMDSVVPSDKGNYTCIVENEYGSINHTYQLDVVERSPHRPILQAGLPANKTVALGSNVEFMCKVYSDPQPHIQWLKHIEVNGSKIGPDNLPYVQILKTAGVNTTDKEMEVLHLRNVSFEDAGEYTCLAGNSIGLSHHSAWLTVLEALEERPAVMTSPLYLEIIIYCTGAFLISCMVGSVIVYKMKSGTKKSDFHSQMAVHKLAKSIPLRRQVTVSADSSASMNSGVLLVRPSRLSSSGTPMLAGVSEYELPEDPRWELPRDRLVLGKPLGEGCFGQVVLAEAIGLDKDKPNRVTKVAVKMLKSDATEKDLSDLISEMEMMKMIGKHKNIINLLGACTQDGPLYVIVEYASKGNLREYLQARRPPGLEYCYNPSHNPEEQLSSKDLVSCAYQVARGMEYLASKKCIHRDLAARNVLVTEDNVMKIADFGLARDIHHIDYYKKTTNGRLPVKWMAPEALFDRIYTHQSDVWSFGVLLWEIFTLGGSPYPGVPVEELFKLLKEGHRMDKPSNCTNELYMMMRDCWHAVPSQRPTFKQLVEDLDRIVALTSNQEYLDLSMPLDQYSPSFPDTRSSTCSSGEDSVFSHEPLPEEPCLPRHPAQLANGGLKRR
Chain of FGFR4 kinase (P22455 22-802): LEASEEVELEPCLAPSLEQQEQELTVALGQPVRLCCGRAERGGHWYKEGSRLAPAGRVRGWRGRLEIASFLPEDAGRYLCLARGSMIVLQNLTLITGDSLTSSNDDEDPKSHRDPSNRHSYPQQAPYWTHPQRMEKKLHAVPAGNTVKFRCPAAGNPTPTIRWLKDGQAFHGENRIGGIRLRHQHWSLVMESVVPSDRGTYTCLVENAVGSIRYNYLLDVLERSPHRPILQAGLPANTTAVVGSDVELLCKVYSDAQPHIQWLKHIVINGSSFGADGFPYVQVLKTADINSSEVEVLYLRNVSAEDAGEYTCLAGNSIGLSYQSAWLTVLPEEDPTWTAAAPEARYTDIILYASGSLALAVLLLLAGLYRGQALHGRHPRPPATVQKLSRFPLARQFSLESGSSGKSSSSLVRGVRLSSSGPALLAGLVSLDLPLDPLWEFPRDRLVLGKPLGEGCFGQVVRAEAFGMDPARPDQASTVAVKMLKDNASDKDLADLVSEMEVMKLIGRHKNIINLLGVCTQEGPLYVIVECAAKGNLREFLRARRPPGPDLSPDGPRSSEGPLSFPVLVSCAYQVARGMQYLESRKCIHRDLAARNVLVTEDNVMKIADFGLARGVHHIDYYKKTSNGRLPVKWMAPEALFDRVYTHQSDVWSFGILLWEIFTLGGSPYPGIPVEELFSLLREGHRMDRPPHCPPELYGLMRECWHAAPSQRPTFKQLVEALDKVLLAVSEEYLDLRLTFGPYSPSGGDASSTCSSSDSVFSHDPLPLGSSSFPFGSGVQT

In general, MRT refers to the average time that molecules of a dose stay in the body. In turn, `COCCNc1cc(NC(=O)N2CCCc3cc(CN4CCCOCC4=O)c(C=O)nc32)ncc1C#N` [Example 6] gave a pIC50 against FGFR1 kinase below 5.00. Also, the pIC50 with Hep 3B cells (setting [2]) is 8.96. Also, the pIC50 in the data set with HuH-7 cells (Huh-7, 72 h) is 8.13. Also, the pIC50 in the data set with SK-HEP-1 cells (SK-HEP1, 72 h) is below 5.00. Also, in data set [1], the Peak Time tmax worked out at 2 h, the AUC(0-t) came to 9120 ng·h/mL, the AUC(0-inf) was found to be 9140 ng·h/mL and the half-life was 0.9 h. Further, in data set [1], the MRT turned out to be 1 h and the Cmax came to 3500 ng/mL. Also, the inhibition in vivo at 30 mg/kg with Hep 3B cell line tumor (setting [3]) was 78.2%.
As to `COC[C@@H](C)Nc1cc(NC(=O)N2CCCc3cc(CN4CCCCOC4=O)c(C=O)nc32)ncc1C#N` [Example 29], the pIC50 in the data set on Hep 3B cells (setting [4]) was 9.22. Further, in the data set with HuH-7 cells (setting [5]), the pIC50 is 8.59. In addition, in the data set on SK-HEP-1 cells (setting [6]), the pIC50 was below 5.00. Besides, in data set [1], the “Mean Residence Time MRT” value worked out at 2.48 h, the Peak Time tmax was determined as 2 h, the AUC(0-t) was 9460 ng·h/mL and the AUC(0-inf) was determined as 9460 ng·h/mL. Besides, in data set [1], the half-life is 1.27 h and the Cmax turned out to be 3380 ng/mL. Besides, the inhibition in vivo at 30 mg/kg with Hep 3B cell line tumor (setting [7]) was determined as 182%.
Consider `COC[C@@H](C)Oc1cc(NC(=O)N2CCCc3cc(CN4C(=O)OCC45CC5)c(C=O)nc32)ncc1C#N` [Example 42, (R)-N-(5-Cyano-4-((1-methoxypropan-2-yl)oxy)pyridin-2-yl)-7-formyl-6-((5-carbonyl-6-oxa-4-azaspiro[2.4]heptan-4-yl)methyl)-3,4-dihydro-1,8-naphthyridin-1(2H) -carboxamide], for which, on FGFR4 kinase, the pIC50 is 8.64. On FGFR1 kinase, this compound gave a pIC50 below 5.00. The pIC50 with Hep 3B cells (setting [4]) is 8.17. In addition, the pIC50 with HuH-7 cells (setting [5]) is 8.08. Further, the pIC50 with SK-HEP-1 cells (setting [6]) was below 5.00. In data set [1], the Peak Time tmax amounted to 2 h, the AUC(0-t) was determined as 6670 ng·h/mL, the AUC(0-inf) is 6790 ng·h/mL and the half-life was 1.06 h. Besides, in data set [1], the MRT was found to be 2.21 h and the Cmax worked out at 2140 ng/mL. The inhibition in vivo at 30 mg/kg with Hep 3B cell line tumor (setting [7]) stood at 103%.
The compound `N#Cc1cnc(NC(=O)N2CCCc3cc(CN4CCOCC4=O)c(C=O)nc32)cc1S[C@H]1CCOC1` [Example 55, (S)-N-(5-Cyano-4-((tetrahydrofuran-3-yl)thio)pyridin-2-yl)-7-formyl-6-((3-carbonylmorpholino)methyl)-3,4-dihydro-1,8-naphthyridin-1(2H)-carboxamide] gave a pIC50 at FGFR1 kinase below 5.00. The pIC50 in the data set with Hep 3B cells (setting [2]) was 7.84. In addition, the pIC50 in the data set on HuH-7 cells (Huh-7, 72 h) was 7.44. Also, the pIC50 with SK-HEP-1 cells (SK-HEP1, 72 h) was below 5.00. Moreover, in data set [1], the Peak Time tmax was 4 h, the AUC(0-t) is 1940 ng·h/mL, the AUC(0-inf) came out at 1950 ng·h/mL and the half-life was 0.79 h. Besides, the Cmax in data set [1] amounted to 2340 ng/mL. Besides, the inhibition in vivo at 30 mg/kg in the data set on Hep 3B cell line tumor (setting [3]) was found to be 33%.
In turn, `N#Cc1cnc(NC(=O)N2CCCc3cc(CN4CCOCC4=O)c(C=O)nc32)cc1S[C@@H]1CCOC1` [Example 56, (R)-N-(5-Cyano-4-((tetrahydrofuran-3-yl)thio)pyridin-2-yl)-7-formyl-6-((3-carbonylmorpholino)methyl)-3,4-dihydro-1,8-naphthyridin-1(2H)-carboxamide] had a pIC50 against FGFR1 kinase below 5.00. For the same compound, the pIC50 in the data set on Hep 3B cells (setting [2]) is 7.64. The pIC50 in the data set with HuH-7 cells (Huh-7, 72 h) was 7.30. In addition, the pIC50 with SK-HEP-1 cells (SK-HEP1, 72 h) is below 5.00. Further, in data set [1], the Peak Time tmax came to 4 h, the AUC(0-t) amounted to 6650 ng·h/mL, the AUC(0-inf) was 6780 ng·h/mL and the half-life is 0.96 h. In data set [1], the Cmax is 1640 ng/mL. In addition, the inhibition in vivo at 30 mg/kg with Hep 3B cell line tumor (setting [3]) stood at 46.4%.
Consider `CO[C@H]1CCC[C@@H]1Nc1cc(NC(=O)N2CCCc3cc(CN4CCOCC4=O)c(C=O)nc32)ncc1C#N` [Example 59, N-(5-Cyano-4-(((1S,2S)-2-methoxycyclopentyl)amino)pyridin-2-yl)-7-formyl-6-((3-carbonylmorpholino)methyl)-3,4-dihydro-1,8-naphthyridin-1(2H)-carboxamide], for which, on FGFR1 kinase, the pIC50 is below 5.00. For the same compound, the pIC50 in the data set on Hep 3B cells (setting [2]) was 8.07. Moreover, the pIC50 in the data set on HuH-7 cells (Huh-7, 72 h) is 7.73. In addition, the pIC50 with SK-HEP-1 cells (SK-HEP1, 72 h) was below 5.00. Moreover, in data set [1], the Peak Time tmax was determined as 2 h, the AUC(0-t) was 1260 ng·h/mL, the AUC(0-inf) was 1260 ng·h/mL and the half-life was 0.86 h. Moreover, in data set [1], the MRT is 2.23 h and the Cmax is 2060 ng/mL. Moreover, the inhibition in vivo at 30 mg/kg in the data set with Hep 3B cell line tumor (setting [3]) was 86.7%.
Take `COCCNc1cc(NC(=O)N2CCCc3cc(CN4CCN(C5CC5)CC4=O)c(C=O)nc32)ncc1C#N` [Example 65]: on FGFR4 kinase, the pIC50 is 8.79. For the same compound, the pIC50 on FGFR1 kinase is below 5.00. Further, the pIC50 with Hep 3B cells (setting [4]) was 8.37. In addition, the pIC50 in the data set on HuH-7 cells (setting [5]) was 7.82. In the data set with SK-HEP-1 cells (setting [6]), the pIC50 was below 5.00. In addition, in data set [1], the Peak Time tmax is 2 h, the AUC(0-t) came to 2910 ng·h/mL, the AUC(0-inf) is 3390 ng·h/mL and the half-life is 1.02 h. In addition, in data set [1], the MRT is 3.72 h and the Cmax worked out at 3180 ng/mL. Also, the inhibition in vivo at 30 mg/kg in the data set on Hep 3B cell line tumor (setting [7]) was found to be 130%.
